Patent publication US20120165310A1, “ETHER DERIVATIVES OF BICYCLIC HETEROARYLS” (NOVARTIS AG, priority 2009, published 2012)
pIC50: −log10 of the molar value.

Biological target: T1, IGF-1R (Homo sapiens, UniProt P08069)
T1 construct: expressed in transfected cells; host or cells: Hek293 (Hek293-IGF1R)
Experiment: Cellular IGF-1R assay: capture ELISA (MSD) of receptor phosphorylation in Hek293 cells
Assay type: cell-based
Conditions: Hek293-IGF1R cells, 1 h pre-incubation, 10 min IGF stimulation, pIGF1R capture ELISA
Method in brief: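 IC50 from 4-parameter fit of IGF1R phosphorylation, normalised to IGF-stimulated and unstimulated controls, measured by MSD capture ELISA on lysates. Hek293-IGF1R cells in starvation medium got compound 1 h (top 10 μM, 3-fold steps, 0.1% DMSO) before a 10 min pulse of 1.0 ng/μL IGF.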

T1 sequence (P08069 31-1367): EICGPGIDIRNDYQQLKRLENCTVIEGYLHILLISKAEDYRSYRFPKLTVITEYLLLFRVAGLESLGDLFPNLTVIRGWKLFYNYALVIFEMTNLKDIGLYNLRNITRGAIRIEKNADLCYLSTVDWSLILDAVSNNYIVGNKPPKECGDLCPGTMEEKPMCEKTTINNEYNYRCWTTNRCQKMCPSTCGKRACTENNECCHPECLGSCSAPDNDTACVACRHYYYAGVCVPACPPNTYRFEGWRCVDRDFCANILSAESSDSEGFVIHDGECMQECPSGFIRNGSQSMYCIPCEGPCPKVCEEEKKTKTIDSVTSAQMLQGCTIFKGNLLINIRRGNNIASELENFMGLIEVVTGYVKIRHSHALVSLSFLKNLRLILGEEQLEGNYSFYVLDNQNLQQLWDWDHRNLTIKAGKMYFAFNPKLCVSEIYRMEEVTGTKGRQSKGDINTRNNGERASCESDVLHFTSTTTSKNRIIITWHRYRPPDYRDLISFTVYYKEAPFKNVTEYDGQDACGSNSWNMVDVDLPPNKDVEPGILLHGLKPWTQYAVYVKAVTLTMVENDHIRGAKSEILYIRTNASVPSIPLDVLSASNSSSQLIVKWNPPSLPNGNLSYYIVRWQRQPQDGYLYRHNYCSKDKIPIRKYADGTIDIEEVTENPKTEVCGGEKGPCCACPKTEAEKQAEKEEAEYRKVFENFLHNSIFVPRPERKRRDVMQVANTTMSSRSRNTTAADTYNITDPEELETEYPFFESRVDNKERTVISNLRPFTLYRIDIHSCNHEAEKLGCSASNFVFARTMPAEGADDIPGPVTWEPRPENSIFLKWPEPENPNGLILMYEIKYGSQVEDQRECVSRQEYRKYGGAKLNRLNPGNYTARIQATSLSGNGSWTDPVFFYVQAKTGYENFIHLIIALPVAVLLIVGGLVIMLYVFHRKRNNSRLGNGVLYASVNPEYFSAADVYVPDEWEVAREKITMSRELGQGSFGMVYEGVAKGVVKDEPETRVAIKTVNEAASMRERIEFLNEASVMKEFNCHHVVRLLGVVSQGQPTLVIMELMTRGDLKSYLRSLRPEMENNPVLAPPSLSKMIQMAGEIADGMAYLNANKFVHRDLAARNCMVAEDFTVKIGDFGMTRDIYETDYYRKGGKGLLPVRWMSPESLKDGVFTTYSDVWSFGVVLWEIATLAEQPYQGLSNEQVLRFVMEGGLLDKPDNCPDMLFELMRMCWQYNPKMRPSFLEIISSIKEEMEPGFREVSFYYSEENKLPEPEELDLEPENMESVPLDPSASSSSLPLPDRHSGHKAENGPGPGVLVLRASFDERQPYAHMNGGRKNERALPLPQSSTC

Nc1ncnc2c1c(-c1cccc(OCC34CCC(CC3)O4)c1)cn2C1CCC(CN2CCC(O)C2)CC1 [Example 126, (S)-1-(((1S,4S)-4-(5-(3-(7-oxabicyclo[2.2.1]heptan-1-ylmethoxy)phenyl)-4-amino-7H-pyrrolo[2,3-d]pyrimidin-7-yl)cyclohexyl)methyl)pyrrolidin-3-ol]
pIC50: 7.30

Nc1ncnc2c1c(-c1cccc(OCC34CCC(CC3)O4)c1)cn2C1CCC(N2CCC(O)C2)CC1 [Example 127, (S)-1-((1S,4S)-4-(5-(3-(7-oxabicyclo[2.2.1]heptan-1-ylmethoxy)phenyl)-4-amino-7H-pyrrolo[2,3-d]pyrimidin-7-yl)cyclohexyl)pyrrolidin-3-ol]
pIC50: 6.43

Nc1ncnc2c1c(-c1cccc(OCC34CCC(CC3)O4)c1)cn2[C@H]1CC[C@@H](N2CC[C@@H](O)C2)CC1 [Example 128, (R)-1-((1S,4S)-4-(5-(3-(7-oxabicyclo[2.2.1]heptan-1-ylmethoxy)phenyl)-4-amino-7H-pyrrolo[2,3-d]pyrimidin-7-yl)cyclohexyl)pyrrolidin-3-ol]
pIC50: 6.82

Nc1ncnc2c1c(-c1cccc(OCC34CCC(CC3)O4)c1)cn2[C@H]1CC[C@@H](CN2CCNC(=O)C2)CC1 [Example 129, 4-(((1S,4S)-4-(5-(3-(7-oxabicyclo[2.2.1]heptan-1-ylmethoxy)phenyl)-4-amino-7H-pyrrolo[2,3-d]pyrimidin-7-yl)cyclohexyl)methyl)piperazin-2-one]
pIC50: 6.49

Nc1ncnc2c1c(-c1cccc(OCC34CCC(CC3)O4)c1)cn2[C@H]1CC[C@@H](CN2CCOCC2)CC1 [Example 130]
pIC50: 7.35

Nc1ncnc2c1c(-c1cccc(OCC34CCC(CC3)O4)c1)cn2C1CCC(N2CCS(=O)(=O)CC2)CC1 (centres unmarked) [Example 131, 7-[4-(1,1-Dioxo-1λ6-thiomorpholin-4-yl)-cyclohexyl]-5-[3-(7-oxa-bicyclo[2.2.1]hept-1-ylmethoxy)-phenyl]-7H-pyrrolo[2,3-d]pyrimidin-4-ylamine]
pIC50: 6.97

Nc1ncnc2c1c(-c1cccc(OCC34CCC(CC3)O4)c1)cn2C1CCC(N2CC[C@H](F)C2)CC1 (stereo partly drawn) [Example 132, 5-(3-(7-oxabicyclo[2.2.1]heptan-1-ylmethoxy)phenyl)-7-((1R,4R)-4-((S)-3-fluoropyrrolidin-1-yl)cyclohexyl)-7H-pyrrolo[2,3-d]pyrimidin-4-amine]
pIC50: 6.94

CC(=O)N[C@H]1CC[C@@H](n2cc(-c3cccc(OCC45CCC(CC4)O5)c3)c3c(N)ncnc32)CC1 [Example 133, N-((1S,4S)-4-(5-(3-(7-oxabicyclo[2.2.1]heptan-1-ylmethoxy)phenyl)-4-amino-7H-pyrrolo[2,3-d]pyrimidin-7-yl)cyclohexyl)acetamide]
pIC50: 6.62

NC[C@H]1CC[C@@H](n2cc(-c3cccc(OCC45CCC(CC4)O5)c3)c3c(N)ncnc32)CC1 [Example 134, 5-(3-(7-oxabicyclo[2.2.1]heptan-1-ylmethoxy)phenyl)-7-((1S,4S)-4-(aminomethyl)cyclohexyl)-7H-pyrrolo[2,3-d]pyrimidin-4-amine]
pIC50: 6.64

CC1(C)CS(=O)(=O)CCN1CC1CCC(n2cc(-c3cccc(OCC45CCC(CC4)O5)c3)c3c(N)ncnc32)CC1 (centres unmarked) [Example 135, 7-[4-(3,3-Dimethyl-1,1-dioxo-1λ6-thiomorpholin-4-ylmethyl)-cyclohexyl]-5-[3-(7-oxa-bicyclo[2.2.1]hept-1-ylmethoxy)-phenyl]-7H-pyrrolo[2,3-d]pyrimidin-4-ylamine]
pIC50: 6.34

Nc1ncnc2c1c(-c1cccc(OCC34CCC(CC3)O4)c1)cn2[C@H]1CC[C@@H](CN2CCNCC2)CC1 [Example 136, 5-(3-(7-oxabicyclo[2.2.1]heptan-1-ylmethoxy)phenyl)-7-((1S,4S)-4-(piperazin-1-ylmethyl)cyclohexyl)-7H-pyrrolo[2,3-d]pyrimidin-4-amine]
pIC50: 6.22

CS(=O)(=O)N1CCN(C[C@H]2CC[C@@H](n3cc(-c4cccc(OCC56CCC(CC5)O6)c4)c4c(N)ncnc43)CC2)CC1 [Example 137, 5-(3-(7-oxabicyclo[2.2.1]heptan-1-ylmethoxy)phenyl)-7-((1S,4S)-4-((4-(methylsulfonyl)piperazin-1-yl)methyl)cyclohexyl)-7H-pyrrolo[2,3-d]pyrimidin-4-amine]
pIC50: 6.79

Nc1ncnc2c1c(-c1cccc(OCC34CCC(CC3)O4)c1)cn2[C@H]1CC[C@@H](n2ccnc2)CC1 [Example 138, 7-((1S,4S)-4-(1H-imidazol-1-yl)cyclohexyl)-5-(3-(7-oxabicyclo[2.2.1]heptan-1-ylmethoxy)phenyl)-7H-pyrrolo[2,3-d]pyrimidin-4-amine]
pIC50: 6.62

Nc1ncnc2c1c(-c1cccc(OCC34CCC(CC3)O4)c1)cn2C1CCC2(CC1)CNC(=O)O2 (centres unmarked) [Example 139, 8-(5-(3-(7-oxabicyclo[2.2.1]heptan-1-ylmethoxy)phenyl)-4-amino-7H-pyrrolo[2,3-d]pyrimidin-7-yl)-1-oxa-3-azaspiro[4.5]decan-2-one]
pIC50: 6.27

CN1CCN(C(=O)N[C@H]2CC[C@@H](n3cc(-c4cccc(OCC56CCC(CC5)O6)c4)c4c(N)ncnc43)CC2)CC1 [Example 140, N-((1R,4R)-4-(5-(3-(7-oxabicyclo[2.2.1]heptan-1-ylmethoxy)phenyl)-4-amino-7H-pyrrolo[2,3-d]pyrimidin-7-yl)cyclohexyl)-4-methylpiperazine-1-carboxamide]
pIC50: 6.33

Nc1ncnc2c1c(-c1cccc(OCC34CCC(CC3)O4)c1)cn2[C@H]1CC[C@@H](NC(=O)C2CCOCC2)CC1 [Example 141, N-((1S,4S)-4-(5-(3-(7-oxabicyclo[2.2.1]heptan-1-ylmethoxy)phenyl)-4-amino-7H-pyrrolo[2,3-d]pyrimidin-7-yl)cyclohexyl)tetrahydro-2H-pyran-4-carboxamide]
pIC50: 7.68

Nc1ncnc2c1c(-c1cccc(OCC34CCC(CC3)O4)c1)cn2[C@H]1CC[C@@H](NC(=O)C2CCC2)CC1 [Example 142, N-((1S,4S)-4-(5-(3-(7-oxabicyclo[2.2.1]heptan-1-ylmethoxy)phenyl)-4-amino-7H-pyrrolo[2,3-d]pyrimidin-7-yl)cyclohexyl)cyclobutanecarboxamide]
pIC50: 7.27

CN1CCN([C@H]2CC[C@@H](n3cc(-c4cccc(OCC56CCC(CC5)O6)c4)c4c(N)ncnc43)CC2)CC1=O [Example 143, 4-((1S,4S)-4-(5-(3-(7-oxabicyclo[2.2.1]heptan-1-ylmethoxy)phenyl)-4-amino-7H-pyrrolo[2,3-d]pyrimidin-7-yl)cyclohexyl)-1-methylpiperazin-2-one]
pIC50: 6.27 to 6.50

Nc1ncnc2c1c(-c1cccc(OCC34CCC(CC3)O4)c1)cn2[C@H]1CC[C@@H](NC(=O)CC(F)(F)F)CC1 [Example 144, N-((1S,4S)-4-(5-(3-(7-oxabicyclo[2.2.1]heptan-1-ylmethoxy)phenyl)-4-amino-7H-pyrrolo[2,3-d]pyrimidin-7-yl)cyclohexyl)-3,3,3-trifluoropropanamide]
pIC50: 6.23

N#Cc1ccnc(N[C@H]2CC[C@@H](n3cc(-c4cccc(OCC56CCC(CC5)O6)c4)c4c(N)ncnc43)CC2)c1 [Example 145, 2-((1S,4S)-4-(5-(3-(7-oxabicyclo[2.2.1]heptan-1-ylmethoxy)phenyl)-4-amino-7H-pyrrolo[2,3-d]pyrimidin-7-yl)cyclohexylamino)isonicotinonitrile]
pIC50: 6.64
